# From EP0534995B1, “INCLUSION COMPOUNDS OF NIMESULIDE WITH CYCLODEXTRINS” (BOEHRINGER INGELHEIM ITALIA S.p.A., priority 1990, dated 1991)
# What was measured:
# [1] = dog, oral, equivalent to 10 mg/kg nimesulide; mean of 4 dogs; computer fitting (TOP FIT) of plasma levels
# Description: (§1) Plasma kinetics were carried out in dog after oral administration of equivalent dosages of nimesulide and inclusion compound nimesulide -β-cyclodextrin according to a crossover scheme. Four male Beagle of body weight between 12.8 and 13.9 kg, fasted for at least 17 hours, were orally administered the following preparations: • A) nimesulide at the dose of 10 mg/kg • B) inclusion compound nimesulide -β-cyclodextrin (molar ratio 1 : 1) at the dose of 46.84 mg/Kg, corresponding to 10 mg/kg of nimesulide.
# (§2) The preparations were administered in gelatine capsule after a "wash-out" period of 10 days.
# (§3) The blood samples from dogs were collected in heparinized tubes after 1, 2, 3, 4, 5, 6, 8, 24, 28, 32, 48 and 52 hours from the administration of the two preparations. The relative plasma samples were obtained by centrifugation for 15 minutes at 3000 rpm.
# (§4) The plasma levels of nimesulide were determined by HPLC with UV detection according to the following procedure: aliquots of plasma up to 2.5 ml were adjusted to 3.5 ml with distilled water and acidified with 1.0 ml of N hydrochloric acid and poured on to a glass column (18 mm i.d. 220 mm of lenght) containing 15 ml of Extralat® Merck. After 15 minutes nimesulide was eluted with two aliquotes of 7.5 ml of dichloromethane containing 5% of methanol. The eluate was evaporated to dryness under reduced pressure and the residue was taken up with 200 µl of 2.5 µg/ml solution of butilhydroxyanisole as internal standard. A suitable amount was therefore injected into a column by using the following chromatographic conditions: • Column RPC₈, 5 µm, 250 x 3 mm i.d. Supelco; • Mobile phase : acetonitrile + water containing 80 mg/l of EDTA in the ratio V/V 37.5 and 62.5 respectively; • Flow rate : 1.0 ml/min. • λ of detection: 230 nm
# (§5) The parameters of AUC. Cmax and Tmax were calculated by the plasma levels of nimesulide using a computer fitting system with TOP FIT package and the results were statistically evaluated by the ANOVA TWO WAYS procedure.
# [2] = in vivo; settings: male, Beagle, dog, plasma, po, 10 mg/kg
# Description: as §1, §2, §3, §4, §5
compound,measurement,setting,value
"CS(=O)(=O)Nc1ccc([N+](=O)[O-])cc1Oc1ccccc1 [Preparation A, 4-nitro-2-phenoxy-methansulfonanilide]",TCmax,[1],4.4 h
same,AUC(0-t),[2],165 µg·h/mL
same,Cmax,[2],12100 ng/mL
